Measurements reported in US7371721B2, “Use of GLP-2 and related compounds for the treatment, prevention, diagnosis, and prognosis of bone-related disorders and calcium homeostasis related syndromes” (priority 2000, dated 2008).
No end group written: not given here.

Key:
S-CTX (bone resorption) = assay: Serum S-CTX (Serum CrossLaps ELISA) as marker of bone resorption in human subjects; format: in vivo
Procedure: (§1) In these Examples, hematology and serum chemistry including glucose were measured using an auto analyzer (Vitros). Serum […] was measured by IRMA (Coat-A-Count®, DPC, Los Angeles, Calif.). Serum C-telopeptide fragments of collagen type I degradation (S-CTX) were measured by ELISA, Serum CrossLaps™ assay (Osteometer BioTech A/S—Denmark). Serum osteocalcin was determined by ELISA, an assay which determines the N-terminal mid segment of the molecule. Serum insulin and c-peptide were both assessed by RIA (Coat-A-Count® for insulin and Double Antibody C-peptide for c-peptide both DPC, Los Angeles, Calif.). Total GIP was measured using the C-terminally directed antiserum R65, which reacts with the intact GIP (1-42) and the N-terminally truncated metabolite, GIP (3-42) (Krarup T, Holst J J 1984 The heterogeneity of gastric inhibitory polypeptide in porcine and human gastrointestinal mucosa evaluated with five different antisera. Regul Pept 9:35-46. ). GLP-2 was measured with a N-terminal specific antiserum code no. 92160, measuring only GLP-2 with an intact N-terminus. GLP-1 in plasma samples was measured using a RIA assay specific for the C-terminus of the GLP-1 molecule, using standards of synthetic GLP-1 (7-36) amide and antiserum no. […] GLP-1 is measured in Example 1 as a marker for the effect of the tested materials on GLP-2 levels. […]

clinical = settings: both sexes, human, in vivo, sc
Procedure: as §1

[1] = system: ovariectomized induced bone loss; assay: Ovariectomized induced bone loss in aged rats, 6 week study; format: in vivo, female Sprague Dawley rats; settings: 6 weeks, in comparison to the untreated controls
Procedure: The following is a protocol suitable to test whether GLP-2A at 250 μg/kg s.c. twice daily can inhibit ovariectomized induced bone loss in aged rats.
• Test articles: GLP-2 analogue (Gly2)GLP-2: […]OH. • Vehicle: 0.5% gelatin/PBS (degassed) Gelatin A: Cat. No. 325910, batch no. 273622 (Unikem, Copenhagen, Denmark). PBS: Dubecco's Phosphate buffered saline (BioWhitaker cat.no.BE17-512F) • Positive control: 17β-estradiol pellet 0.5 mg/60 days release implanted subcutaneous (SE-121 Innovative Research of America) A dose of 250 μg/kg is administered by subcutaneous injections twice daily (10-12 hours apart). The injection site will vary according to the injection scheme. The dose is calculated as follow: the weight ofthe rat in kg=the dose in ml; e.g. 0.301kg=0.30 ml Experimental System: The study is performed in 50 female Sprague Dawley rats in 4 groups each of 12 or 13 rats. Surgery: • The rats are anaesthetized with Hypnorm-Domicum (1 part Hypnorm+1 part Dormicum+2 part sterile dI water. The rats are given 0.15 ml/100 g body weight). Ovariectomy (OVX) or sham operations are performed via a midline incision in the back of the rats. […] The wet weight and length of the small intestine and the colon will be recorded. […] Bones are assessed by PQCT, trabecular strength and histomorphologic analysis.

[2] = system: fractures in postmenopausal osteoporosis; settings: cited from earlier work
GLP-1 = assay: Plasma GLP-1 level (RIA), in Examples 1 and 2 as marker for GLP-2; format: in vivo, human; settings: after 2 hours, compared to the baseline of 100% at T0; oral 75 g fructose
Procedure: as §1

GIP = assay: Total GIP level (antiserum R65); format: in vivo, human; settings: oral 75 g fructose
Procedure: as §1

[3] = in vivo; cited from earlier work

CC[C@H](C)[C@H](NC(=O)[C@H](Cc1ccccc1)NC(=O)[C@H](CC(=O)O)NC(=O)[C@H](CCCNC(=N)N)NC(=O)[C@H](C)NC(=O)[C@H](C)NC(=O)[C@H](CC(C)C)NC(=O)[C@H](CC(N)=O)NC(=O)[C@H](CC(=O)O)NC(=O)[C@H](CC(C)C)NC(=O)[C@@H](NC(=O)[C@@H](NC(=O)[C@H](CC(N)=O)NC(=O)[C@H](CCSC)NC(=O)[C@H](CCC(=O)O)NC(=O)[C@H](CC(=O)O)NC(=O)[C@H](CO)NC(=O)[C@H](Cc1ccccc1)NC(=O)[C@H](CO)NC(=O)CNC(=O)[C@H](CC(=O)O)NC(=O)[C@H](C)NC(=O)[C@@H](N)Cc1c[nH]cn1)[C@@H](C)O)[C@@H](C)CC)C(=O)N[C@@H](CC(N)=O)C(=O)N[C@@H](Cc1c[nH]c2ccccc12)C(=O)N[C@@H](CC(C)C)C(=O)N[C@H](C(=O)N[C@@H](CCC(N)=O)C(=O)N[C@H](C(=O)N[C@@H](CCCCN)C(=O)N[C@H](C(=O)N[C@H](C(=O)N[C@@H](CC(=O)O)C(=O)O)[C@@H](C)O)[C@@H](C)CC)[C@@H](C)O)[C@@H](C)CC [GLP-2]
reduction in S-CTX (S-CTX (bone resorption); after 3 hours, subcutaneous bolus injection of 400 μg, healthy women and men): 35%
Tmax (clinical): 1 h

C[C@]12CC[C@@H]3c4ccc(O)cc4CC[C@H]3[C@@H]1CC[C@@H]2O [17β-estradiol]
protection against bone density loss following the OVX procedure [1]: protected against bone density loss

CC[C@H](C)[C@H](NC(=O)[C@H](CCC(=O)O)NC(=O)[C@H](CO)NC(=O)[C@@H](NC(=O)[C@@H](N)CO)C(C)C)C(=O)N[C@@H](CCC(N)=O)C(=O)N[C@@H](CC(C)C)C(=O)N[C@@H](CCSC)C(=O)N[C@@H](Cc1cnc[nH]1)C(=O)N[C@@H](CC(N)=O)C(=O)N[C@@H](CC(C)C)C(=O)NCC(=O)N[C@@H](CCCCN)C(=O)N[C@@H](Cc1cnc[nH]1)C(=O)N[C@@H](CC(C)C)C(=O)N[C@@H](CC(N)=O)C(=O)N[C@@H](CO)C(=O)N[C@@H](CCSC)C(=O)N[C@@H](CCC(=O)O)C(=O)N[C@@H](CCCN=C(N)N)C(=O)N[C@H](C(=O)N[C@@H](CCC(=O)O)C(=O)N[C@@H](Cc1c[nH]c2ccccc12)C(=O)N[C@@H](CC(C)C)C(=O)N[C@@H](CCCN=C(N)N)C(=O)N[C@@H](CCCCN)C(=O)N[C@@H](CCCCN)C(=O)N[C@@H](CC(C)C)C(=O)N[C@@H](CCC(N)=O)C(=O)N[C@@H](CC(=O)O)C(=O)N[C@H](C(=O)N[C@@H](Cc1cnc[nH]1)C(=O)N[C@@H](CC(N)=O)C(=O)N[C@@H](Cc1ccccc1)C(=O)O)C(C)C)C(C)C [teriparatide]
effect on new non-vertebral fractures ([2]; by the end of the 21-month treatment period): −35%
decrease in occurrence of new vertebral fractures ([2]; subcutaneous daily dose 20 μg, Caucasian women (70 years of age)): 65%
reduction of moderate-to-severe fractures ([2]; subcutaneous daily dose 20 μg): 90%
reduction of multiple vertebral fractures ([2]; subcutaneous daily dose 20 μg): 77%

O=C(CO)[C@@H](O)[C@H](O)[C@H](O)CO [Oral fructose, fructose]
reduction in S-CTX (S-CTX (bone resorption); after 2 hours, oral 75 g fructose in 300 ml water, fasted healthy women and men): 36%
level of GLP-2 (measured as GLP-1) (GLP-1): 220%
level of GIP (GIP): almost maintained at baseline

PTH: parathyroid hormone treatment (teriparatide and related compounds) discussed in the cited studies
hypercalcemia and related symptoms, share of treated individuals [3]: about 11%

His-Gly-Asp-Gly-Ser-Phe-Ser-Asp-Glu-Met-Asn-Thr-Ile-Leu-Asp-Asn-Leu-Ala-Ala-Arg-Asp-Phe-Ile-Asn-Trp-Leu-Ile-Gln-Thr-Lys-Ile-Thr-Asp-OH (HGDGSFSDEMNTILDNLAARDFINWLIQTKITD-OH) [(Gly2)GLP-2]
protection against bone density loss following the OVX procedure [1]: protected against bone density loss
